# Measured values as given in US20110152093A1, “Herbicidal compositions comprising flufenacet” (Bayer CropScience AG, priority 2009, published 2011).
# Key:
# Assay type in all cases: in vivo
# [1] = test system: STEME (Stellaria media); assay: Action under various soil conditions (soil types), test method 7; conditions: g of AS/ha: (A) 90, (B) 1200, (C) 140, (A)+(B)+(C) 90 + 1200 + 140
# Method: (§1) In the standard design of the test, seeds of various broad-leaved weed and weed grass biotypes (origins) were sown in a 8-13 cm diameter pot filled with natural soil of a standard field soil (loamy silt; non-sterile) and covered with a covering soil layer of about 1 cm. The pots were then cultivated in a greenhouse (12-16 h of light, temperature day 20-22° C., night 15-18° C.) until the time of application. The pots were treated on a laboratory track sprayer with spray liquors comprising the compositions according to the invention, mixtures of the prior art or components used individually. Application of the active compounds or active compound combinations formulated as WG, WP, EC or otherwise was carried out at the appropriate growth stages of the plants. The application rate for the spray application was 100-600 l of water/ha. After the treatment, the plants were returned to the greenhouses.
# (§2) About 3 weeks after the application, the soil action or/and foliar action was assessed visually according to a scale of 0-100% in comparison to an untreated comparative group: 0%=no noticeable effect compared to the untreated comparative group; 100%=full effect compared to the untreated comparative group.
# (§3) (notes: the term “seeds” also includes vegetative propagation forms such as, for example, rhizome pieces; abbreviations used: h light=hours of illumination, g of AS/ha=gram of active substance per hectare, l/ha=liter per hectare, S=sensitive, R=resistant) • 1. Pre-emergence action against weeds: seeds of various broad-leaved weed and weed grass biotypes (origins) were sown in a 8-13 cm diameter pot filled with natural soil of a standard field soil (loamy silt; non-sterile) and covered with a covering soil layer of about 1 cm. The pots were then cultivated in a greenhouse (12-16 h of light, temperature day 20-22° C., night 15-18° C.) until the time of application. The pots were treated at the BBCH stage 00-10 of the seeds/plants on a laboratory track sprayer with spray liquors comprising the compositions according to the invention, mixtures or components used individually, as WG, WP, EC or other formulations. The application rate for the spray application was 100-600 l of water/ha. After the treatment, the plants were returned to the greenhouses and, when required, treated with fertilizer and watered. • 2. Post-emergence action against weeds: seeds of various broad-leaved weed and weed grass biotypes (origins) were sown in a 8-13 cm diameter pot filled with natural soil of a standard field soil (loamy silt; non-sterile) and covered with a covering soil layer of about 1 cm. The pots were then cultivated in a greenhouse (12-16 h of light, temperature day 20-22° C., night 15-18° C.) until the time of application. The pots were treated at various BBCH stages between 11-25 of the seeds/plants, i.e. generally between two to three weeks after the start of the cultivation, on a laboratory track sprayer with spray liquors comprising the compositions according to the invention, mixtures or components used individually, as WG, WP, EC or other formulations. The application rate for the spray application was 100-600 l of water/ha. After the treatment, the plants were returned to the greenhouses and, when required, treated with fertilizer and watered. • 3. Selective pre-emergence action: seeds of various crop species (origins) were sown in a 8-13 cm diameter pot filled with natural soil of a standard field soil (loamy silt; non-sterile) and covered with a covering soil layer of about 1 cm. The pots were then cultivated in a greenhouse (12-16 h of light, temperature day 20-22° C., night 15-18° C.) until the time of application. The pots were treated at the BBCH stage 00-10 of the seeds/plants on a laboratory track sprayer with spray liquors comprising the compositions according to the invention, mixtures or components used individually, as WG, WP, EC or other formulations. The application rate for the spray application was 100-600 l of water/ha. […]
# [2] = test system: HORVS (Hordeum vulgare, summer barley); assay: Action under various soil conditions (soil types), test method 7, crop compatibility; conditions: g of AS/ha: (A) 90, (B) 1200, (C) 140, (A)+(B)+(C) 90 + 1200 + 140
# Method: as §1, §2
# (notes: the term “seeds” also includes vegetative propagation forms such as, for example, rhizome pieces; abbreviations used: h light=hours of illumination, g of AS/ha=gram of active substance per hectare, l/ha=liter per hectare, S=sensitive, R=resistant) • 1. Pre-emergence action against weeds: seeds of various broad-leaved weed and weed grass biotypes (origins) were sown in a 8-13 cm diameter pot filled with natural soil of a standard field soil (loamy silt; non-sterile) and covered with a covering soil layer of about 1 cm. The pots were then cultivated in a greenhouse (12-16 h of light, temperature day 20-22° C., night 15-18° C.) until the time of application. The pots were treated at the BBCH stage 00-10 of the seeds/plants on a laboratory track sprayer with spray liquors comprising the compositions according to the invention, mixtures or components used individually, as WG, WP, EC or other formulations. The application rate for the spray application was 100-600 l of water/ha. After the treatment, the plants were returned to the greenhouses and, when required, treated with fertilizer and watered. • 2. Post-emergence action against weeds: seeds of various broad-leaved weed and weed grass biotypes (origins) were sown in a 8-13 cm diameter pot filled with natural soil of a standard field soil (loamy silt; non-sterile) and covered with a covering soil layer of about 1 cm. The pots were then cultivated in a greenhouse (12-16 h of light, temperature day 20-22° C., night 15-18° C.) until the time of application. The pots were treated at various BBCH stages between 11-25 of the seeds/plants, i.e. generally between two to three weeks after the start of the cultivation, on a laboratory track sprayer with spray liquors comprising the compositions according to the invention, mixtures or components used individually, as WG, WP, EC or other formulations. The application rate for the spray application was 100-600 l of water/ha. After the treatment, the plants were returned to the greenhouses and, when required, treated with fertilizer and watered. • 3. […]
# [3] = test system: ALOMY resistant (Alopecurus myosuroides); assay: PE action on resistant weed biotypes, test method 8; conditions: PE application; g of AS/ha: (A) 90, (B) 1200, (C) 140, (A)+(B)+(C) 90 + 1200 + 140, iodosulfuron 10
# Method: as §1, §2, §3
# [4] = test system: ALOMY sensitive (Alopecurus myosuroides); assay: as above; conditions: PE application; g of AS/ha: (A) 90, (B) 1200, (C) 140, (A)+(B)+(C) 90 + 1200 + 140, iodosulfuron 10
# Method: as §1, §2, §3
# [5] = test system: LOLSS resistant (Lolium species); assay: as above; conditions: PE application; g of AS/ha: (A) 90, (B) 1200, (C) 140, (A)+(B)+(C) 90 + 1200 + 140, iodosulfuron 10
# Method: as §1, §2, §3
# [6] = test system: LOLSS sensitive (Lolium species); assay: as above; conditions: PE application; g of AS/ha: (A) 90, (B) 1200, (C) 140, (A)+(B)+(C) 90 + 1200 + 140, iodosulfuron 10
# Method: as §1, §2, §3
# [7] = test system: MATCH (Matricaria chamomilla); assay: PE action at different sowing depths, test method 9; conditions: PE application, g of AS/ha: (A) 90, (B) 1200, (C) 140, (A)+(B)+(C) 90 + 1200 + 140
# Method: as §1
# as §2, with “group. […]” for “group.”
# [8] = test system: HORVS (Hordeum vulgare, summer barley); assay: PE crop selectivity at different sowing depths, test method 9; conditions: PE application, g of AS/ha: (A) 90, (B) 1200, (C) 140, (A)+(B)+(C) 90 + 1200 + 140
# Method: as §1
# as §2, with “group. […]” for “group.”
# [9] = test system: HORVS (Hordeum vulgare, summer barley); assay: PE crop compatibility at different soil pH values, test method 10; conditions: PE application, g of AS/ha: (A) 90, (B) 1200, (C) 140, (A)+(B)+(C) 90 + 1200 + 140
# Method: as §1, §2
# [10] = test system: AVEFA (Avena fatua); assay: PE action at different soil pH values, test method 10; conditions: PE application, g of AS/ha: (A) 90, (B) 1200, (C) 140, (A)+(B)+(C) 90 + 1200 + 140
# Method: as §1, §2
smiles,measurement,setting,value
"CCC(CC)Nc1c([N+](=O)[O-])cc(C)c(C)c1[N+](=O)[O-] [(B) pendimethalin, N-(1-ethylpropyl)-3,4-dimethyl-2,6-dinitrobenzenamine]",activity STEME IU soil,[1]; IU soil,85%
same,activity STEME IU/EC73 soil,[1]; IU/EC73 soil,55%
same,activity HORVS IU soil (crop plant),[2]; IU soil,0%
same,activity HORVS IU/EC73 soil (crop plant),[2]; IU/EC73 soil,0%
same,activity ALOMY resistant,[3],40%
same,activity ALOMY sensitive,[4],30%
same,activity LOLSS resistant,[5],0%
same,activity LOLSS sensitive,[6],78%
same,activity MATCH 5 mm,[7]; sowing depth 5 mm,0%
same,activity MATCH 20 mm,[7]; sowing depth 20 mm,30%
same,activity HORVS 5 mm (crop plant),[8]; sowing depth 5 mm,30%
same,activity HORVS 20 mm (crop plant),[8]; sowing depth 20 mm,20%
same,activity HORVS pH 7.4 (crop plant),[9]; soil pH 7.4,0%
same,activity HORVS pH 8.4 (crop plant),[9]; soil pH 8.4,15%
same,activity AVEFA pH 7.4,[10]; soil pH 7.4,10%
same,activity AVEFA pH 8.4,[10]; soil pH 8.4,30%
